Data from patent publication US11179722B2, “Microfluidic method for handling microdrops” (ECOLE POLYTECHNIQUE, priority 2016, dated 2021).

Test system: rat hepatoma, H4IIEC3 cells
Type: cell-based
Experimental: An experiment was conducted to determine, in a single microfluidic system, the concentration beyond which a medicinal product (acetaminophen) becomes toxic to liver cells (rat hepatoma, H4IIEC3 cells).
The microfluidic chamber used containing 252 identical traps on 2 cm^2 in FIGS. 5A and 5B.
The first microdrops 20 of agarose that is liquid at 37° C. (ultra-low gelling), at 0.9 wt % diluted in culture medium containing H4IIEC3 cells, were trapped in the first trapping zones 15, the second trapping zone 18 remaining free. The first microdrops 20 were then cultured for one day to allow the cells to adhere to one another to form a spheroid by first microdrops 20. […]
By taking a fluorescence image before fusion, the different levels of fluorescence that are correlated with the concentration of medicinal product in the second microdrops 25 could be identified. […]
The chamber was perfused with HFE-7500 (fluorinated oil) containing 1H,1H,2H,2H-perfluorooctan-1-ol at a concentration of 20 vol % in order to fuse the microdrops in contact. […] By taking an image of the final matrix, the spheroids whose viability was affected most could be determined. […] Thus, correlating the result for viability and the concentration of acetaminophen in the second microdrops, it could be determined that the range of toxicity of acetaminophen on these hepatic cells is between 10 and 30 mmol/L for a static exposure of 1 day.

SMILES: CC(=O)Nc1ccc(O)cc1 [acetaminophen]
- cell survival as a function of acetaminophen concentration: the higher the concentration of acetaminophen, the fewer cells survive
- range of toxicity of acetaminophen on these hepatic cells (rat, 1 day): 10 and 30
